These results are taken from article PMC2957562 (Bioorganic & medicinal chemistry letters, 2010).

Assay [1] concerns the target T1, HIV-1 Integrase (Human immunodeficiency virus type 1 group M subtype B, UniProt P04585). The assay can be described thus: HIV-1 integrase 3′-processing inhibition. In kind it is biochemical.
Assay [2] concerns the target T1, HIV-1 Integrase. Put plainly: HIV-1 integrase strand transfer inhibition. In kind it is biochemical.

SMILES strings stand for the structures.

As usually defined, the IC50 is the point on the concentration scale where inhibition reaches its midpoint. On to `COc1ccc(/C=C2\C(=O)N(c3ccc(C(=O)O)cc3)N=C2C(F)(F)F)cc1OCc1ccc(F)cc1` [Compound 5m], for which the IC50 against HIV-1 Integrase [1] was more than 100 µM.

For `COc1ccc(/C=C2\C(=O)N(c3cccc(Br)c3)N=C2NC(=O)C(F)(F)F)cc1OCc1ccc(F)cc1` [Compound 6d], the IC50 against HIV-1 Integrase [1] and on HIV-1 Integrase [2] was more than 100 µM each time.

With `O=C(O)C1=NN(c2cccc([N+](=O)[O-])c2)C(=O)/C1=C\c1ccc(OCc2ccc(F)cc2)c(O)c1` [Compound 14d], at HIV-1 Integrase [2] (in vitro, strand transfer step), the “Strand Transfer IC50” value is “single-digit micromolar”.

For `COc1ccc(/C=C2\C(=O)N(c3cccc(Br)c3)N=C2OC(C)=O)cc1OCc1ccc(F)cc1` [Compound 6e], the IC50 on HIV-1 Integrase [1] was more than 100 µM.

On to `COc1ccc(/C=C2\C(=O)N(c3ccc(NS(C)(=O)=O)cc3)N=C2C(F)(F)F)cc1OCc1ccc(F)cc1` [Compound 5n], for which the IC50 against HIV-1 Integrase [1] and at HIV-1 Integrase [2] was more than 100 µM each time.

With `COc1ccc(/C=C2\C(=O)N(c3cccc(-c4ccccc4)c3)N=C2C(F)(F)F)cc1OCc1ccc(F)cc1` [Compound 5d], the IC50 against HIV-1 Integrase [1] was more than 100 µM.

Consider `COc1ccc(/C=C2\C(=O)N(c3cccc(Br)c3)N=C2COC(C)=O)cc1OCc1ccc(F)cc1` [Compound 6f], for which the IC50 against HIV-1 Integrase [1] was more than 100 µM.

In turn, `COc1ccc(/C=C2\C(=O)N(c3cc(Cl)cc(Cl)c3)N=C2C(F)(F)F)cc1OCc1ccc(F)cc1` [Compound 5j] returned an IC50 against HIV-1 Integrase [1] of more than 100 µM.

`COc1ccc(/C=C2\C(=O)N(c3cccc(F)c3)N=C2C(F)(F)F)cc1OCc1ccc(F)cc1` [Compound 5f] showed an IC50 on HIV-1 Integrase [1] of more than 100 µM.

At HIV-1 Integrase [1], `COc1ccc(/C=C2\C(=O)N(c3cccc(I)c3)N=C2C(F)(F)F)cc1OCc1ccc(F)cc1` [Compound 5i] displayed an IC50 of more than 100 µM.

Compound `COc1ccc(/C=C2\C(=O)N(c3ccc(I)cc3)N=C2C(F)(F)F)cc1OCc1ccc(F)cc1` [Compound 56l] came in with an IC50 on HIV-1 Integrase [1] of more than 100 µM.

With `COc1ccc(/C=C2\C(=O)N(c3ccccc3)N=C2C(F)(F)F)cc1OCc1ccc(F)cc1` [Compound 5a], the IC50 at HIV-1 Integrase [1] and against HIV-1 Integrase [2] was more than 100 µM each time.

Regarding `COc1ccc(/C=C2\C(=O)N(c3cccc(C)c3)N=C2C(F)(F)F)cc1OCc1ccc(F)cc1` [Compound 5b], the IC50 against HIV-1 Integrase [1] and against HIV-1 Integrase [2] was more than 100 µM each time.

Compound `CCC(=O)OC1=NN(c2cccc(Br)c2)C(=O)/C1=C\c1ccc(OC)c(OCc2ccc(F)cc2)c1` [Compound 6g] registered an IC50 at HIV-1 Integrase [1] of more than 100 µM.

`O=C1/C(=C\c2ccc(O)c(OCc3ccc(F)cc3)c2)C(C(F)(F)F)=NN1c1cccc(Br)c1` [Compound 4f]: the IC50 against HIV-1 Integrase [1] is more than 100 µM.

For the compound `COc1ccc(/C=C2\C(=O)N(c3cccc(Br)c3)N=C2C(F)(F)F)c(OC)c1OC` [Compound 4b], the IC50 on HIV-1 Integrase [1] and against HIV-1 Integrase [2] was more than 100 µM in each case.

Consider `CCC1=NN(c2cccc(Br)c2)C(=O)/C1=C\c1ccc(OC)c(OCc2ccc(F)cc2)c1` [Compound 6b], for which the IC50 against HIV-1 Integrase [1] and against HIV-1 Integrase [2] was more than 100 µM in each case.

Turning to `COc1ccc(/C=C2\C(=O)N(c3nc4ccccc4s3)N=C2C(F)(F)F)cc1OCc1ccc(F)cc1` [Compound 5o], the half-maximal inhibitory concentration (IC50) against HIV-1 Integrase [1] was more than 100 µM.

For `COc1ccc(/C=C2\C(=O)N(c3cccc(Br)c3)N=C2C)cc1OCc1ccc(F)cc1` [Compound 6a], the IC50 against HIV-1 Integrase [1] and at HIV-1 Integrase [2] was more than 100 µM throughout.
